Patent US20250134901A1, “PHARMACEUTICAL COMPOSITION CONTAINING COMBINATION OF MELOXICAM AND RIZATRIPTAN AND PROCESS OF PREPARATION THEREOF” (Alembic Pharmaceuticals Limited, priority 2021, published 2025)
Converted amounts (≈) assume the structure as drawn. Like-named read-outs stand apart in the source and are kept apart here.

Assay: Solubility of meloxicam API in different pH buffered solutions
Assay type: physicochemical
Details: read-out: Meloxicam API Solubility (BCS)

- solubility (aqueous buffer, pH 4.5 Acetate buffer): 30 µg/mL (≈ 85.4 µM)
- solubility (aqueous buffer, pH 6.8 Phosphate Buffer): 2700 µg/mL (≈ 7680 µM)
- solubility (aqueous buffer, pH 7.5 Phosphate buffer): 110 µg/mL (≈ 313 µM)
- solubility (simulated gastric fluid, 0.01N HCl (pH 2.0)): 20 µg/mL (≈ 56.9 µM)
Structure (SMILES): Cc1cnc(NC(=O)C2=C(O)c3ccccc3S(=O)(=O)N2C)s1 [Meloxicam, 4-hydroxy-2-methyl-N-(5-methyl-2-thiazolyl)-2H-1,2-benzothiazine-3-carboxamide-1,1-dioxide]
